From patent publication US6552066B1, “Protein tyrosine kinase inhibitors for treating osteoarthritis” (priority 1995, dated 2003)
Values belong to the compound of their own block, whether it stands above or below them.

Experiments:
[1] = tested on: IL-1-induced aggrecan degradation; test: Aggrecan degradation in IL-1-stimulated chondrocytes, 2-B-6 antibody immunoblot; assay type: cell-based, bovine; details: for intensity of staining (total amount of PG fragments), 2-B-6: relative to PKA, PKC and calmodulin-dependent kinase inhibitor samples
Description: (§1) Primary bovine articular chondrocytes from calf adio-carpal joints were isolated and cultured as above in Example 1, up to and including the addition of the following protein kinase inhibitors: 1) Protein kinase A (PKA) inhibitors; 0.5 μM H88 (Seikagaku Corp.), 0.5 μM H89 (Seikagaku Corp.); 2) Protein kinase C (PKC) inhibitors; 0.5 μM Calphostin C (Calbiochem), 1.0 μM Chelerythrine (Calbiochem); 3) CA^2+/Calmodulin Kinase II inhibitor; 5.0 μM KN93 (Seikagaku Corp.); 4) Protein tyrosine kinase (PTK) inhibitors; 50 μM Genistein (Calbiochem), 10 μM Herbimycin A (Calbiochem). After the 24 hour IL-1α incubation, the media of each sample was measured, and collected on ice in the presence of the protease inhibitors EGTA (5 mM), Pefaloc (1 mM), pepstatin (1 μg/ml), and NEM (5 mM). Media were concentrated approximately 40 fold using a Centriprep-10 ultrafiltration device (Amicon).
(§2) Proteoglycans contained within the media were deglycosylated by incubations with chondroitinase ABC, keratinase, and keratinase II following the procedure of Sandy et al. J Biol Chem (1991) 266:8683-8685 and Sandy et al. J. Clin Invest (1992) 89:1512-1516. Samples of deglycosylated media were subjected to 4-15% gradient SDS-PAGE and transferred to nitrocellulose membranes (2 ml-worth and 6 ml-worth of media were used for 2-B-6 and BC-3 immunoblotting, respectively.) The membranes were blocked with 1% nonfat dry milk and 1% BSA, and then incubated in either the BC-3 or 2-B-6 primary monoclonal antibody for 1 hour. The 2-B-6 antibody detects chondroitin sulfate stubs on chondroitinase-treated proteoglycans (both intact and degradation products. BC-3 antibody detects “ARGSV . . . ,” the new N-terminus (“neoepitope”) resulting from cleavage of aggrecan interglobular domain at Glu^373/ALA^374 by aggrecanase. It is of note to mention that the BC-3 and 2-B-6 antibodies were of low sensitivity. Following 3 washes, membranes were incubated in either alkaline phosphatase-conjugated goat anti-mouse (for the 2-B-6 blot) or biotinylated goat anti-mouse (for the BC-3 blot); followed by alkaline phosphatase-conjugated streptavidin/biotin complex). After washing 3 times, immunoreactive proteins were detected using NBT/BCIP (Sigma) colorimetric substrate.
The 2-B-6 antibody detected intact aggrecan (the uppermost band) and several aggrecan degradation products, along with decorin and biglycan (50K doublet), in the IL-1-treated media samples. […] The bands in the IL-1 sample that are seen at 230K, 200K, 130K and 100K have been previously identified by sequence analysis to result from IL-1-induced “aggrecanase” cleavage.
(§3) A repeat of the Western immunoblotting experiment using 2-B-6 antibodies was performed. Furthermore, additional inhibitors from four enzyme families were examined: 1) Protein tyrosine kinase (PTK) inhibitors; 1 μM Tryphostin AG 1296 (Calbiochem), 50 μM Tyrphostin A25 (AG 82) (Calbiochem), 50 μM Tyrphostin AG 126 (Calbiochem), 50 μM Tyrphostin B56 (AG 556) (Calbiochem), 20 μM DAPH (Calbiochem); 2) Guanylate cyclase inhibitor; 10 μM LY-83583 (Calbiochem); 3) Casein kinase I inhibitor; 20 μM CKI-7 (Seikagaku Corp.); and 4) Protein kinase G (PKG) and PKA inhibitor; 5.0 μM H89.

prostromelysin protein = test: Western immunoblot of IL-1-induced prostromelysin protein in primary bovine chondrocytes; assay type: cell-based; details: for effect on IL-1α-induced prostromelysin protein levels: repeat experiment; for effect on IL-1-induced prostromelysin levels: first experiment
Description: Isolation and culturing of primary bovine articular chondrocytes, as well as addition of inhibitors were performed as indicated above in Example 4. The following protein kinase inhibitors were tested: 1) Protein kinase A (PKA) inhibitors; 0.5 μM H88 (Seikagaku Corp.), 0.5 μM H89 (Seikagaku Corp.), 2) Protein kinase C (PKC) inhibitors; 0.5 μM Calphostin C (Calbiochem), 1.0 μM Chelerythrine (Calbiochem); 3) CA^2+/Calmodulin Kinase II inhibitor; 5.0 μM KN93 (Seikagaku Corp.); 4) Protein tyrosine kinase (PTK) inhibitors; 50 μM Genistein (Calbiochem), 10 μM Herbimycin A (Calbiochem).
After the 24 hour IL-1α incubation, the media of each sample was measured and collected on ice in the presence of the protease inhibitors EGTA (5 mM), Pefabloc (1 mM), pepstatin (1 μg/ml), and NEM (5 mM). Media were concentrated approximately 40 fold using a Centriprep-10 ultrafiltration device (Amicon). Concentrated samples were normalized to equivalent starting concentrations (cell number/culture volume), were reduced in the presence of SDS Laemmli sample buffer and electrophoresed in a precast 12% polyacrylamide gel (BioRad). Protein samples were then electroblotted to nitrocellulose and immunodetected using a primary antibody that recognizes both prostromelysin and stromelysin. Immunoreactive bands were visualized with the ABC detection (Pierce) and an NBT/BCIP color reagent (Sigma).
as §3, with “antistromelysin” for “2-B-6”, “inhibitors:” for “inhibitors;”, “Tyrphostin” for “Tryphostin”, “126” for “126 (Calbiochem), 50 μM Tyrphostin B56 (AG 556) (Calbiochem), 20 μM DAPH”

[2] = tested on: aggrecanase activity in bovine cartilage explants; test: Bovine cartilage explant assay without added plasminogen (IL-1-induced aggrecanase degradation); assay type: cell-based; details: no added plasminogen
Excerpt: The assay described in Example 2 can be carried out with and without added plasminogen. With plasminogen, the active forms of the metalloproteinases (MMPs) and plasmin were generated. It is believed that MMPs, “aggrecanase” and plasmin degraded the cartilage explant in this assay. […] Therefore, in the absence of plasminogen, cartilage degradation occurred primarily as a result of “aggrecanase” activity.

[3] = tested on: aggrecanase cleavage of aggrecan (230K fragment); test: Aggrecanase neoepitope in IL-1-stimulated chondrocytes, BC-3 antibody immunoblot; assay type: cell-based, bovine
Description: as §1, §2

[4] = concentration not printed in Example 5

SMILES: N#CC(C#N)=Cc1cc(O)c(O)c(O)c1 [Tyrphostin AG 82]
inhibition of IL-1-induced aggrecan degradation, 2-B-6 ([1]; 50 μM, repeat experiment): moderate inhibition
effect on IL-1α-induced prostromelysin protein levels (prostromelysin protein; 50 μM): slight inhibitory activity
inhibition of release of 35S-labelled proteoglycan ([2]; 50 μM): 31%

SMILES: O=C1NC(=O)c2cc(Nc3ccccc3)c(Nc3ccccc3)cc21 [DAPH, 4,5-dianilinophthalimide]
inhibition of IL-1-induced aggrecan degradation, 2-B-6 ([1]; 20 μM, repeat experiment): moderately strong inhibition
effect on IL-1α-induced prostromelysin protein levels (prostromelysin protein; [4]): dramatic reduction

SMILES: N#C/C(=C\c1ccc(O)c(O)c1)C(=O)NCCCCc1ccccc1 [Tyrphostin AG 556]
inhibition of IL-1-induced aggrecan degradation, 2-B-6 ([1]; 50 μM, repeat experiment): 100%
effect on IL-1α-induced prostromelysin protein levels (prostromelysin protein; [4]): dramatic reduction

SMILES: N#CC(C#N)=Cc1ccc([N+](=O)[O-])c(O)c1 [Tyrphostin AG 126]
inhibition of IL-1-induced aggrecan degradation, 2-B-6 ([1]; 50 μM, repeat experiment): no inhibitory effect
effect on IL-1α-induced prostromelysin protein levels (prostromelysin protein; 50 μM): no effect
inhibition of release of 35S-labelled proteoglycan ([2]; 50 μM): no effect

BC-3 immunoreactive band at approximately 230K (aggrecanase-mediated fragment) ([3]; 50 μM): not present
SMILES: O=c1c(-c2ccc(O)cc2)coc2cc(O)cc(O)c12 [Genistein]
level of the 230K aggrecan degradation product, 2-B-6 ([1]; 50 μM): significantly reduce
levels of the uppermost band (intact aggrecan), 2-B-6 ([1]; 50 μM): increased
intensity of staining (total amount of PG fragments), 2-B-6 ([1]; 50 μM): reduced
inhibition of IL-1-induced aggrecan degradation, 2-B-6 ([1]; 50 μM, repeat experiment): partial inhibition
effect on IL-1-induced prostromelysin levels (prostromelysin protein; 50 μM): completely inhibited
effect on IL-1α-induced prostromelysin protein levels (prostromelysin protein; 50 μM): dramatic reduction
inhibition at 50 µM ([2]; Bos taurus, 50 μM, read-out: inhibition of release of 35S-labelled proteoglycan): 37%

BC-3 immunoreactive band at approximately 230K (aggrecanase-mediated fragment) ([3]; 10 μM): not present
SMILES: CO[C@H]1[C@@H](OC)C[C@H](C)[C@@H](OC)C2=CC(=O)C=C(NC(=O)/C(C)=C/C=C\[C@H](OC)[C@@H](OC(N)=O)/C(C)=C/[C@@H]1C)C2=O [Herbimycin A]
level of the 230K aggrecan degradation product, 2-B-6 ([1]; 10 μM): significantly reduce
levels of the uppermost band (intact aggrecan), 2-B-6 ([1]; 10 μM): increased
intensity of staining (total amount of PG fragments), 2-B-6 ([1]; 10 μM): reduced
inhibition at 10 µM ([1]; Bos taurus, Chondrocyte, 10 μM, repeat experiment): ~100%
effect on IL-1-induced prostromelysin levels (prostromelysin protein; 10 μM): completely inhibited
effect on IL-1α-induced prostromelysin protein levels (prostromelysin protein; 10 μM): dramatic reduction
inhibition at 0.25 µM ([2]; Bos taurus, 0.25 μM, read-out: inhibition of release of 35S-labelled proteoglycan): 55%
inhibition at 0.5 µM ([2]; Bos taurus, 0.5 μM, read-out: inhibition of release of 35S-labelled proteoglycan): 63%
inhibition at 1 µM ([2]; Bos taurus, 1 μM, read-out: inhibition of release of 35S-labelled proteoglycan): 78%
